Active and inactive are the calls of the source. The rule behind the calls is not given here.
Molecular target: methionyl-tRNA synthetase (Trypanosoma brucei brucei) (UniProt Q38C91)
Experiment: inhibition of trypanosome methionyl-tRNA synthetase – biochemical, fluorescence polarization, orthogonal assay for T. brucei MetRS inhibitor project, dose response (AID 651989)

Chain of methionyl-tRNA synthetase (Trypanosoma brucei brucei) (Q38C91 1-773): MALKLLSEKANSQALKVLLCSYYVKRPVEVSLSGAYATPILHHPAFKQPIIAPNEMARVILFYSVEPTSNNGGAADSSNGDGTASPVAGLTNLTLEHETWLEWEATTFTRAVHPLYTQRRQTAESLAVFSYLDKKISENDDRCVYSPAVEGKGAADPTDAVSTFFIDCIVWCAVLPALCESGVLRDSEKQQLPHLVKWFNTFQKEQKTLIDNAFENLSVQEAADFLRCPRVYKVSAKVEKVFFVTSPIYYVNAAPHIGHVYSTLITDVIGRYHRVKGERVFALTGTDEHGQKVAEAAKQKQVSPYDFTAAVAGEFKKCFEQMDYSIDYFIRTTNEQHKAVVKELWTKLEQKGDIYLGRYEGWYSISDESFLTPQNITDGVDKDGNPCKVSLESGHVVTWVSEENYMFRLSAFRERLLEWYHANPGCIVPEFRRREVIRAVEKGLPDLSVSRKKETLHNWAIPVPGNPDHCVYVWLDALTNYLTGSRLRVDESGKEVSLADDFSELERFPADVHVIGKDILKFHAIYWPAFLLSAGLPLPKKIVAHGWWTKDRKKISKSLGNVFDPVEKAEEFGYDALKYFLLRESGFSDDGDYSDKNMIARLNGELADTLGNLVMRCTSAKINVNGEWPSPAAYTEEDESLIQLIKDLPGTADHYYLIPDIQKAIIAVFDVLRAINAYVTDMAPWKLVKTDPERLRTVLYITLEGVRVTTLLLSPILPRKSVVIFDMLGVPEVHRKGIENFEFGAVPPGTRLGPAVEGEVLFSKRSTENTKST

| IC50 | Compound |
| --- | --- |
| > 119 µM (inactive) | O=C(Cc1ccc(Br)cc1)NNC(=O)Nc1ccc(Cl)cc1 |
| > 119 µM (inactive) | COc1ccc(NC(=O)COC(=O)CCCOc2ccc(Cl)cc2Cl)cc1 |
| > 119 µM (inactive) | N#Cc1ccccc1CSc1nc2ncc(Br)cc2[nH]1 |
| > 119 µM (inactive) | Cc1cc2c(c(=O)n1CC1CCCO1)C(c1ccc3c(c1)OCO3)C(C#N)=C(N)O2 (stereo not drawn) |
| > 119 µM (inactive) | COc1cc(OC)c(OC)cc1/C=N/Nc1nc2ccccc2[nH]1 |
| > 119 µM (inactive) | Cc1cc(Cl)ccc1OCCCC(=O)NNC(=O)c1ccccc1O |
| > 119 µM (inactive) | O=C(OCC(=O)c1c[nH]c2ccccc12)c1ccc(OC(F)F)cc1 |
| > 119 µM (inactive) | COc1ccc(CC(=O)OCC(=O)Nc2ccc(Br)cc2)cc1 |
| > 119 µM (inactive) | O=C(NCc1cc(Br)cc(Br)c1OC(=O)c1ccccc1[N+](=O)[O-])c1ccccc1 |
| > 119 µM (inactive) | N#Cc1ccccc1CSc1ccc(-c2nc3ccccc3[nH]2)cn1 |
| > 119 µM (inactive) | Cc1ccc(C(=O)Nn2c(O)c(C=C3N=c4ccccc4=N3)sc2=S)cc1 |
| inactive | Clc1ccccc1-c1ccc2ncnc(NCc3ccc4c(c3)OCO4)c2c1 |
| > 119 µM (inactive) | CO/N=C(\c1nonc1N)N1CCN(c2ccc(Cl)cc2[N+](=O)[O-])CC1 |

— PubChem BioAssay AID651989 (The Scripps Research Institute Molecular Screening Center, 2013)
